In ChEMBL document CHEMBL1134152, “Biological activity in human neutrophils of di-tripeptides, analogues of the chemotactic fMLP” (Bioorg Med Chem Lett, 2001):

Key:
[1] = Chemotactic index (C.I.) which is the ratio: (migration toward test attractant minus migration toward the buffer)/(migration toward the buffer).; assay type: functional
[2] = Release of neutrophil granule enzymes was evaluated by determining lysozyme activity modified for microplate-based assays.

Row | Lysozyme release [2] [%] | Compound | Chemotactic index [1]
1 | 70 | COC(=O)[C@H](Cc1ccccc1)NC(=O)[C@H](CCCCNC(=O)N[C@@H](CCSC)C(=O)N[C@@H](CC(C)C)C(=O)N[C@@H](Cc1ccccc1)C(=O)O)NC(=O)[C@H](CCSC)NC=O | 0.7
2 | 60 | COC(=O)[C@H](Cc1ccccc1)NC(=O)[C@H](CC(C)C)NC(=O)[C@H](CCSC)NC=O | 1
3 | 65 | COC(=O)[C@H](Cc1ccccc1)NC(=O)[C@H](CC(=O)N[C@@H](CCSC)C(=O)N[C@@H](CC(C)C)C(=O)N[C@@H](Cc1ccccc1)C(=O)O)NC(=O)[C@H](CCSC)NC=O | 0.5
